Results from patent publication US9944721B2, “Polysialic acid and use for treatment of neurodegenerative and neuroinflammatory diseases” (RHEINISCHE FRIEDRICH-WILHELMS UNIVERSITÄT BONN, priority 2013, dated 2018).

Tested on: humanized Siglec-11 transgenic mice or littermate control mice
Experiment: Laser-induced animal model of macular degeneration, intravitreal injection
Assay type: in vivo
Description: An animal model of macular degeneration was induced by laser technology. Experimental damage of the mouse retina using a laser is a well-accepted animal model for age-related macular degeneration. Laser coagulation and direct damage of Bruch's membrane rapidly lead to microglia and complement activation and induce vascular leakage. Fluorescence angiography is an established method to detect vascular leakage in the retina.
Humanized Siglec-11 transgenic mice (Wang Y, 2009, dissertation, University Bonn, uniform resource name: urn:nbn:de:hbz:5N-18095) or littermate control mice were used in this experiment.
Three argon laser coagulation spots were induced (125 mW, 100 ms, […], Viridis, Quantel Medical, France) in the retina of the mice. Directly afterwards the mice were injected intra-vitreally with PSA-20 (3 μg/per eye) or a PBS vehicle control.
Retinal tissue was analyzed 48 hours after the laser lesion by immunohistochemistry. Therefore, whole mount immunostaining was performed with a polyclonal rabbit-anti-ionized calcium-binding adapter molecule 1 (Iba1) antibody followed by fluorescein (FITC)-conjugated secondary antibody directed against rabbit immunoglobulin (IgG). Confocal images of the inner plexiform layer from the retina were collected and the percentage of the activated amoeboid microglia in relation to the total Iba1-positive microglia was determined in and outside the laser lesion of the PSA-20 treated Siglec-11 and the control mice.
To determine the inflammation mediated vascular leakage, fluorescein angiography was performed 48 hours after laser coagulation lesion of the retina. In detail, anesthetized animals were injected intraperitoneally with 0.1 ml 2.5% fluorescein in 0.9% sterile NaCl. Late stage angiography pictures were taken eleven minutes after fluorescein injection on a Spectralis HRA2 retina angiograph (Heidelberg Engineering) to visualize vessel leakage. Angiography pictures were exported from Heidelberg Eye Explorer Software as jpeg files. Pixel intensities of 6 regions of interest (roi) per picture were quantified with ImageJ and background fluorescence was subtracted.
At 48 hours before angiography, three argon laser coagulation spots were induced (125 mW, 100 ms, 100 μm, Viridis, Quantel Medical, France) in the retina of the Siglec-11 transgenic or littermate control mice. Mice were injected intra-vitreally with PSA-20 (3 μg/per eye) or a PBS vehicle control. […] Statistically significant groups were determined by One-Way ANOVA and Student's t-test. […]
Again, the laser damage of retinas was induced in the humanized Siglec-11 transgenic mice or littermate controls as described above. […] Single data points indicate individual eyes analyzed. Data were analyzed by ordinary one-way ANOVA followed by Tukey's multiple comparisons test. […]

Substance: poly-(α(2→8)Neu5Ac)n [PSA-20]
- Microglial activation (activated amoeboid microglia to total Iba1-positive microglia) (Siglec-11 transgenic mice, 3 μg/per eye intravitreal, 48 hours after laser lesion, FIG. 7D): significantly reduced
- vascular leakage (fluorescein angiography) (Siglec-11 transgenic mice, 3 μg/per eye intravitreal, 48 hours after laser, FIG. 7E): significantly reduced vascular leakage
- microglial Iba1 immunoreactivity (normal mice, 3 μg/per eye intravitreal, 48 hours after laser lesion): No effect
- vascular leakage (fluorescein angiography) (repeat, at least 8 retinas per group, Siglec-11 transgenic mice, 48 hours, vehicle 117.8+/−7.8, FIG. 7G): 84.07+/−8.2
